According to patent publication US20260242371A1, “LIPID PRODRUGS OF BROM[…] USES THEREOF” (priority 2023, published 2026):

Molecular target: T1, recombinant human monoacylglyceride lipase (rhMAGL) (Homo sapiens, UniProt Q99685)
T1 sequence (Q99685 1-303): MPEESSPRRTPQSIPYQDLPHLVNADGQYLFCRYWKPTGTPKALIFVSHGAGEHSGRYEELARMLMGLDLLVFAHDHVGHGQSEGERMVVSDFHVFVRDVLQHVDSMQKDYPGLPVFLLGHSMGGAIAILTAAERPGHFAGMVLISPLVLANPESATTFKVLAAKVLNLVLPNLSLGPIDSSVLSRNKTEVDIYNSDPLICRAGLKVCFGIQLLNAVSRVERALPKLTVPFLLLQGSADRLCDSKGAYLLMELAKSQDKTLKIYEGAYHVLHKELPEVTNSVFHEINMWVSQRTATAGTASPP
Assay: In vitro monoglyceride stability of lipid prodrugs with lipoprotein lipase and rhMAGL
Assay type: in vitro ADME
Conditions: 50 μM prodrug, 10 mg/mL BSA, LPL 300 units/mL, 180 vs 30 minutes, 37° C., scale −10 to 10
Procedure: The stability of lipid prodrugs of 2-bromo-LSD was evaluated in the presence or absence of recombinant human monoacylglyceride lipase (rhMAGL). 50 µM of prodrug was incubated in 10 mg/mL BSA supplemented with lipoprotein lipase (300 units/mL) and rhMAGL (0-0.5 μg/mL). The concentration of MAGL may be adjusted based on observed activity. Reactions were initiated via the addition of prodrug and incubated at 37° C. for 180 minutes. Aliquots were removed at 30, 60, 120, and 180 minutes and the reaction quenched with the addition of cold acetonitrile spiked with internal standard(s) (1:3 sample to acetonitrile). Samples were vortexed and centrifuged and the supernatant transferred and diluted in 0.1% formic acid water (1:3 supernatant to 0.1% formic acid water). Samples were analyzed via LC-MS. Monoglyceride stability was calculated using the following equations:
LPL MG Ratio=MG Peak Area at 180 minutes for LPL only/MG Peak area at 30 minutes for LPL only
rhMAGLMG Ratio=MG Peak Area at 180 minutes for LPLand rhMAGL/MG Peak Area at 30 minutes for LPLand rhMAGL
MG Stability=((rhMAGLMG Ratio−(1−LPL MG Ratio))*10
Stability is calculated on a scale of −10 to 10, with 10 representing 100% monoglyceride remaining (i.e., highest stability) and −10 representing 100% monoglyceride loss (i.e., lowest stability). Monoglyceride stability is represented by the following categories, wherein A is a stability score of 5 to 10, B is a stability score of 0 to 5, C is a stability score of −5 to 0, and D is a stability score of −5 to −10.

Compound	Monoacylglyceride Stability
CCCCCCCC/C=C\CCCCCCCC(=O)OCC(COC(=O)CCCCCCC/C=C\CCCCCCCC)OC(=O)CC(C)CC(=O)n1c(Br)c2c3c(cccc31)C1=C[C@@H](C(=O)N(CC)CC)CN(C)[C@@H]1C2 (stereo partly shown) [Compound I-1, 2BL-C5bMe-2-TG-oleate]	A (A is a stability score of 5 to 10)
CCCCCCCC(=O)OCC(COC(=O)CCCCCCC)OC(=O)CC(C)CC(=O)OCOC(=O)n1c(Br)c2c3c(cccc31)C1=C[C@@H](C(=O)N(CC)CC)CN(C)[C@@H]1C2 (stereo partly shown) [Compound I-7, 2BL-CASI-C5bMe-2-TG-octanoate]	A (A is a stability score of 5 to 10)
CCCCCCCC/C=C\CCCCCCCC(=O)OCC(COC(=O)CCCCCCC/C=C\CCCCCCCC)OC(=O)CC(C)CCCCCCC(=O)n1c(Br)c2c3c(cccc31)C1=C[C@@H](C(=O)N(CC)CC)CN(C)[C@@H]1C2 (stereo partly shown) [Compound I-24, 2BL-C10bMe-2-TG-oleate]	A (A is a stability score of 5 to 10)
CCCCCCCC/C=C\CCCCCCCC(=O)OCC(COC(=O)CCCCCCC/C=C\CCCCCCCC)OC(=O)CC(C)CCCCC(=O)OCn1c(Br)c2c3c(cccc31)C1=C[C@@H](C(=O)N(CC)CC)CN(C)[C@@H]1C2 (stereo partly shown) [Compound I-5, 2BL-ASI-C8bMe-2-TG-oleate]	C (C is a stability score of −5 to 0)
CCCCCCCC(=O)OCC(COC(=O)CCCCCCC)OC(=O)CC(C)(C)CCC(=O)OCOC(=O)n1c(Br)c2c3c(cccc31)C1=C[C@@H](C(=O)N(CC)CC)CN(C)[C@@H]1C2 [Compound I-23, 2BL-CASI-C6bbGMe-2-TG-octanoate]	A (A is a stability score of 5 to 10)
CCCCCCCC(=O)OCC(COC(=O)CCCCCCC)OC(=O)CC(C)(C)CC(=O)OCn1c(Br)c2c3c(cccc31)C1=C[C@@H](C(=O)N(CC)CC)CN(C)[C@@H]1C2 [Compound I-28, 2BL-ASI-C5bbGMe-2-TG-octanoate]	D (D is a stability score of −5 to −10)
CCCCCCCC/C=C\CCCCCCCC(=O)OCC(COC(=O)CCCCCCC/C=C\CCCCCCCC)OC(=O)CC(C)CCCCC(=O)n1c(Br)c2c3c(cccc31)C1=C[C@@H](C(=O)N(CC)CC)CN(C)[C@@H]1C2 (stereo partly shown) [Compound I-2, 2BL-C8bMe-2-TG-oleate]	A (A is a stability score of 5 to 10)
CCCCCCCC(=O)OCC(COC(=O)CCCCCCC)OC(=O)CC1(CC(=O)OCCCCC(=O)n2c(Br)c3c4c(cccc42)C2=C[C@@H](C(=O)N(CC)CC)CN(C)[C@@H]2C3)CC1 [Compound I-18, 2BL-FSI5-C5bcPr-2-TG-octanoate]	A (A is a stability score of 5 to 10)
CCCCCCCC/C=C\CCCCCCCC(=O)OCC(COC(=O)CCCCCCC/C=C\CCCCCCCC)OC(=O)CC(C)CC(=O)OCn1c(Br)c2c3c(cccc31)C1=C[C@@H](C(=O)N(CC)CC)CN(C)[C@@H]1C2 (stereo partly shown) [Compound I-4, 2BL-ASI-C5bMe-2-TG-oleate]	D (D is a stability score of −5 to −10)
CCCCCCCC(=O)OCC(COC(=O)CCCCCCC)OC(=O)CC(C)(C)CCC(=O)OCCCC(=O)n1c(Br)c2c3c(cccc31)C1=C[C@@H](C(=O)N(CC)CC)CN(C)[C@@H]1C2 [Compound I-22, 2BL-FSI4-C6bbGMe-2-TG-octanoate]	A (A is a stability score of 5 to 10)
CCCCCCCC(=O)OCC(COC(=O)CCCCCCC)OC(=O)CC(C)(C)CC(=O)OCCCC(=O)n1c(Br)c2c3c(cccc31)C1=C[C@@H](C(=O)N(CC)CC)CN(C)[C@@H]1C2 [Compound I-15, 2BL-FSI4-C5bbGMe-2-TG-octanoate]	B (B is a stability score of 0 to 5)
CCCCCCCC/C=C\CCCCCCCC(=O)OCC(COC(=O)CCCCCCC/C=C\CCCCCCCC)OC(=O)CC(C)CC(=O)Oc1ccc(Cn2c(Br)c3c4c(cccc42)C2=C[C@@H](C(=O)N(CC)CC)CN(C)[C@@H]2C3)cc1 (stereo partly shown) [Compound I-20, 2BL-PHB-C5bMe-2-TG-oleate]	A (A is a stability score of 5 to 10)
CCCCCCCC/C=C\CCCCCCCC(=O)OCC(COC(=O)CCCCCCC/C=C\CCCCCCCC)OC(=O)CC(C)CC(=O)Oc1ccc(COC(=O)n2c(Br)c3c4c(cccc42)C2=C[C@@H](C(=O)N(CC)CC)CN(C)[C@@H]2C3)cc1 (stereo partly shown) [Compound I-21, 2BL-CPHB-C5bMe-2-TG-oleate]	A (A is a stability score of 5 to 10)
CCCCCCCC(=O)OCC(COC(=O)CCCCCCC)OC(=O)CC(C)(C)CCC(=O)OCCCCC(=O)n1c(Br)c2c3c(cccc31)C1=C[C@@H](C(=O)N(CC)CC)CN(C)[C@@H]1C2 [Compound I-19, 2BL-FSI5-C6bbGMe-2-TG-octanoate]	A (A is a stability score of 5 to 10)
CCCCCCCC/C=C\CCCCCCCC(=O)OCC(COC(=O)CCCCCCC/C=C\CCCCCCCC)OC(=O)CC(C)CC(=O)OCCCCC(=O)n1c(Br)c2c3c(cccc31)C1=C[C@@H](C(=O)N(CC)CC)CN(C)[C@@H]1C2 (stereo partly shown) [Compound I-17, 2BL-FSI5-C5bMe-2-TG-oleate]	A (A is a stability score of 5 to 10)
CCCCCCCC/C=C\CCCCCCCC(=O)OCC(COC(=O)CCCCCCC/C=C\CCCCCCCC)OC(=O)CC(C)CC(=O)OCCCC(=O)n1c(Br)c2c3c(cccc31)C1=C[C@@H](C(=O)N(CC)CC)CN(C)[C@@H]1C2 (stereo partly shown) [Compound I-14, 2BL-FSI4-C5bMe-2-TG-oleate]	A (A is a stability score of 5 to 10)
CCCCCCCC(=O)OCC(COC(=O)CCCCCCC)OC(=O)CC1(CC(=O)OCCCC(=O)n2c(Br)c3c4c(cccc42)C2=C[C@@H](C(=O)N(CC)CC)CN(C)[C@@H]2C3)CC1 [I-15′, 2BL-FSI4-C5bcPr-2-TG-octanoate]	A (A is a stability score of 5 to 10)
CCCCCCCC(=O)OCC(COC(=O)CCCCCCC)OC(=O)CC(C)(C)CCC(=O)OCn1c(Br)c2c3c(cccc31)C1=C[C@@H](C(=O)N(CC)CC)CN(C)[C@@H]1C2 [Compound I-27, 2BL-ASI-C6bbGMe-2-TG-octanoate]	D (D is a stability score of −5 to −10)
CCCCCCCC(=O)OCC(COC(=O)CCCCCCC)OC(=O)CC1(CC(=O)n2c(Br)c3c4c(cccc42)C2=C[C@@H](C(=O)N(CC)CC)CN(C)[C@@H]2C3)CC1 [Compound I-26, 2BL-C5bcPr-2-TG-octanoate]	A (A is a stability score of 5 to 10)
CCCCCCCC/C=C\CCCCCCCC(=O)OCC(COC(=O)CCCCCCC/C=C\CCCCCCCC)OC(=O)CC(C)CCCCCCCCC(=O)OCn1c(Br)c2c3c(cccc31)C1=C[C@@H](C(=O)N(CC)CC)CN(C)[C@@H]1C2 (stereo partly shown) [Compound I-6, 2BL-ASI-C12bMe-2-TG-oleate]	C (C is a stability score of −5 to 0)
CCCCCCCC(=O)OCC(COC(=O)CCCCCCC)OC(=O)CC(C)(C)CC(=O)OCOC(=O)n1c(Br)c2c3c(cccc31)C1=C[C@@H](C(=O)N(CC)CC)CN(C)[C@@H]1C2 [Compound I-9, 2BL-CASI-C5bbGMe-2-TG-octanoate]	A (A is a stability score of 5 to 10)
CCCCCCCC/C=C\CCCCCCCC(=O)OCC(COC(=O)CCCCCCC/C=C\CCCCCCCC)OC(=O)CC(C)CCCCCCC(C)CC(=O)n1c(Br)c2c3c(cccc31)C1=C[C@@H](C(=O)N(CC)CC)CN(C)[C@@H]1C2 (stereo partly shown) [Compound I-3, 2BL-C12b′bMe-2-TG-oleate]	B (B is a stability score of 0 to 5)
CCCCCCCC(=O)OCC(COC(=O)CCCCCCC)OC(=O)CC1(CC(=O)OCOC(=O)n2c(Br)c3c4c(cccc42)C2=C[C@@H](C(=O)N(CC)CC)CN(C)[C@@H]2C3)CC1 [I-9′, 2BL-CASI-C5bcPr-2-TG-octanoate]	A (A is a stability score of 5 to 10)
CCCCCCCC(=O)OCC(COC(=O)CCCCCCC)OC(=O)CC1(CC(=O)OCn2c(Br)c3c4c(cccc42)C2=C[C@@H](C(=O)N(CC)CC)CN(C)[C@@H]2C3)CC1 [Compound I-25, 2BL-ASI-C5bcPr-2-TG-octanoate]	D (D is a stability score of −5 to −10)
CCCCCCCC(=O)OCC(COC(=O)CCCCCCC)OC(=O)CC(C)(C)CC(=O)OCCCCC(=O)n1c(Br)c2c3c(cccc31)C1=C[C@@H](C(=O)N(CC)CC)CN(C)[C@@H]1C2 [Compound I-16, 2BL-FSI5-C5bbGMe-2-TG-octanoate]	A (A is a stability score of 5 to 10)
